Reference: paper PMC4042406 (British journal of haematology, 2011)
Where “and” joins values, the source holds several entries; their conditions need not be identical. Identical values can stand only once.

Key:
CDK1/cyclin B = CDK1/cyclin B (Homo sapiens, UniProt P06493); assay: Invitrogen Z'-LYTE in vitro kinase activity assay; type: biochemical; conditions: 500 nM LCQ195, 100 μM ATP, 1% DMSO
CDK2/cyclin A [1] = target: T1, CDK2/cyclin A (Homo sapiens, UniProt P24941); assay: Invitrogen Z'-LYTE in vitro kinase activity assay; type: biochemical; conditions: 500 nM LCQ195, 100 μM ATP, 1% DMSO
CDK5/p25 = CDK5/p25 (Homo sapiens, UniProt Q00535); assay: Invitrogen Z'-LYTE in vitro kinase activity assay; type: biochemical; conditions: 500 nM LCQ195, 100 μM ATP, 1% DMSO
Chain of CDK5/p25 (Q00535 whole entry): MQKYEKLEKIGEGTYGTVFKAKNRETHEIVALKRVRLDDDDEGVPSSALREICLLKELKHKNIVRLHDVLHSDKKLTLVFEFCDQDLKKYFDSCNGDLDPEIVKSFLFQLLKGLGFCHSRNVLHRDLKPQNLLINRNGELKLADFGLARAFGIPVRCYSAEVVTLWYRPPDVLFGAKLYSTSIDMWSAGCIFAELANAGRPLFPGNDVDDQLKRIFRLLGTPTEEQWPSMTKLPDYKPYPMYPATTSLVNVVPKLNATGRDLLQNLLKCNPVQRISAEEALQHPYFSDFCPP

CDK5/p35 = CDK5/p35 (Homo sapiens, UniProt Q00535); assay: Invitrogen Z'-LYTE in vitro kinase activity assay; type: biochemical; conditions: 500 nM LCQ195, 100 μM ATP, 1% DMSO
Chain of CDK5/p35 (Q00535 whole entry): as above

CLK3 = CLK3 (Homo sapiens, UniProt P49761); assay: Invitrogen Z'-LYTE in vitro kinase activity assay; type: biochemical; conditions: 500 nM LCQ195, 100 μM ATP, 1% DMSO
Chain of CLK3 (P49761 whole entry): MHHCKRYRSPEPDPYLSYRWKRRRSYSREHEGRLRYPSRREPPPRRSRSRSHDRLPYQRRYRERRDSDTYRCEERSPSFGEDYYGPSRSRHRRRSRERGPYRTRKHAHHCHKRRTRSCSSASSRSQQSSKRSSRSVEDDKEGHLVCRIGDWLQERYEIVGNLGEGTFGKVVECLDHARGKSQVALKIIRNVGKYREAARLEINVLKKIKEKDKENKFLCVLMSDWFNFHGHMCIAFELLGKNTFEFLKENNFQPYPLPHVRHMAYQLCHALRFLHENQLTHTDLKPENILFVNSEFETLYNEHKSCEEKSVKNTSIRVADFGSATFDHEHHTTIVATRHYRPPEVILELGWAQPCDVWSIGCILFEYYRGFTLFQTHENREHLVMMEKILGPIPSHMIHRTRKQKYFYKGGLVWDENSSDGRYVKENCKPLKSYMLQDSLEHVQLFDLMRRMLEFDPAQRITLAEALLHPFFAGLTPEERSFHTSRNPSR

CHEK2 (CHK2) = CHEK2 (CHK2) (Homo sapiens, UniProt O96017); assay: Invitrogen Z'-LYTE in vitro kinase activity assay; type: biochemical; conditions: 500 nM LCQ195, 100 μM ATP, 1% DMSO
Chain of CHEK2 (CHK2) (O96017 whole entry): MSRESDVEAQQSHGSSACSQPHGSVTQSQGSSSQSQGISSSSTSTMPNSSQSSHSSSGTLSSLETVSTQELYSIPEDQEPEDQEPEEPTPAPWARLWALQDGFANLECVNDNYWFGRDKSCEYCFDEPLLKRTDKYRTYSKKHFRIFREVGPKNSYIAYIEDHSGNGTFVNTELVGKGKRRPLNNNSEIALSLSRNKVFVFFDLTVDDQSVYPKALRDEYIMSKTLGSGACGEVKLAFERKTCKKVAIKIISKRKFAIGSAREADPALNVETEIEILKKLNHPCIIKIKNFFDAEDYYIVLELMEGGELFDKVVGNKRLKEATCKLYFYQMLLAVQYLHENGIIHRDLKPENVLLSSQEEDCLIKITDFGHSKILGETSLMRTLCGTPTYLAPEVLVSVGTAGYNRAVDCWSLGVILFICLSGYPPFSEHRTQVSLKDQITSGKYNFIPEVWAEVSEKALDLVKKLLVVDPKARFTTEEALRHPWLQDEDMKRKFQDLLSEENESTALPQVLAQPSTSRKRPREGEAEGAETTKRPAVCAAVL

CDK2/cyclin A [2] = target: T1, CDK2/cyclin A; assay: Millipore KinaseProfilerXL kinase activity, dose titration; type: biochemical; conditions: 5-log dose titration 0.001-10μM
CDK2/cyclin E = CDK2/cyclin E (Homo sapiens, UniProt P24941); assay: as above; type: biochemical; conditions: 5-log dose titration 0.001-10μM
S6B45 MM cell line = assay: MTT colorimetric survival assay; type: cell-based, human; conditions: read-out: EC50 (viability), S6B45, 0-4 μM, 48 hrs
OPM2 MM cell line = assay: MTT colorimetric survival assay; type: cell-based, human; conditions: read-out: EC50 (viability), OPM2, 0-4 μM, 48 hrs
KMS-12-BM MM cell line = assay: MTT colorimetric survival assay; type: cell-based, human; conditions: read-out: EC50 (viability), 0-4 μM, 48 hrs
U266 MM cell line = assay: MTT colorimetric survival assay; type: cell-based, human; conditions: read-out: EC50 (viability), U266, 0-4 μM, 48 hrs
Delta 47 MM cell line = assay: MTT colorimetric survival assay; type: cell-based, human; conditions: read-out: EC50 (viability), Delta 47, 0-4 μM, 48 hrs
Dox40 MM cell line = assay: MTT colorimetric survival assay; type: cell-based, human; conditions: read-out: EC50 (viability), Dox40, 0-4 μM, 48 hrs
NOP2 MM cell line = assay: MTT colorimetric survival assay; type: cell-based, human; conditions: read-out: EC50 (viability), NOP2, 0-4 μM, 48 hrs
XG-1 MM cell line = assay: MTT colorimetric survival assay; type: cell-based, human; conditions: read-out: EC50 (viability), XG-1, 0-4 μM, 48 hrs
panel of MM cell lines = assay: MTT colorimetric survival assay, panel of MM cell lines; type: cell-based, human; conditions: read-out: EC50 (viability), majority of MM cell lines, 0-4 μM, 48 hrs
HS-5 BMSCs = assay: MTT viability of non-malignant stromal cells; type: cell-based, human; conditions: read-out: calculated EC50 (viability); non-malignant HS-5 BMSCs
[3] = test system: immortalized hepatocyte cell line THLE-3; assay: MTT viability of immortalized hepatocytes; type: cell-based; conditions: read-out: calculated EC50 (viability); immortalized hepatocytes THLE-3
PBMCs = assay: MTT viability of PBMCs from healthy donors; type: cell-based, human; conditions: LCQ195 up to 8 μM for 48 hrs
[4] = test system: CD138+ selected primary MM cells; assay: CellTiterGlo viability of purified primary tumor cells from MM patients; type: cell-based, human; conditions: increasing doses, 48 hrs
MM.1S cells [5] = assay: Flow cytometric cell cycle analysis; type: cell-based, human; conditions: 2 μM for up to 48 hours
MM.1S cells [6] = assay: Annexin V / PI flow cytometric analysis of apoptosis; type: cell-based, human; conditions: 2 μM, 4-48 hrs
MM.1S cells [7] = assay: InnoCyte Cytochrome C release assay; type: cell-based, human
[8] = test system: Bcl-2 over-expressing MM.1S; assay: Survival of Bcl-2 over-expressing MM.1S vs parental cells; type: cell-based, human; conditions: LCQ195 treatment for 48 hrs
MM.1S cells [9] = assay: Immunoblotting analysis of LCQ195-treated cells; type: cell-based, human; conditions: 2 μM
MM.1S cells [10] = assay: Drug combination viability; type: cell-based, human; conditions: data not shown
MM.1S cells [11] = assay: Gene expression profiling; type: cell-based, human; conditions: 2 μM, 2-24hrs
MM.1S cells [12] = assay: Immunoblotting, comparison of LCQ195, flavopiridol and Taxol; conditions: equipotent doses: LCQ195 1 μM, flavopiridol 50 nM; 4-24 hrs

Chain of CDK1/cyclin B (P06493 whole entry): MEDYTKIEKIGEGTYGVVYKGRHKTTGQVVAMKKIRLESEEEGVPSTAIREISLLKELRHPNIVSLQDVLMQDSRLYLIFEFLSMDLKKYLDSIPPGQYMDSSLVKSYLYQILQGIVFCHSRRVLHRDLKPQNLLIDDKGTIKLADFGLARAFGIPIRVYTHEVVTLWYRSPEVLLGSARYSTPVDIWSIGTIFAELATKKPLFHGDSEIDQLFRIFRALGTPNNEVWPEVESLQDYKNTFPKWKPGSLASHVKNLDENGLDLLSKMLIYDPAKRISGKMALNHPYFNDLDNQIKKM

## CS(=O)(=O)N1CCC(NC(=O)c2[nH]ncc2NC(=O)c2c(Cl)cccc2Cl)CC1 [LCQ195]
CDK1/cyclin B
  inhibition of kinase activity: potent inhibition
CDK2/cyclin A [1]
  inhibition of kinase activity: potent inhibition
CDK5/p25
  inhibition of kinase activity: potent inhibition
CDK5/p35
  inhibition of kinase activity: potent inhibition
CLK3
  inhibition of kinase activity: partial inhibition
CHEK2 (CHK2)
  inhibition of kinase activity: partial inhibition
CDK2/cyclin A [2]
  in vitro kinase activity in dose titration: active at sub-μM concentrations
CDK2/cyclin E
  in vitro kinase activity in dose titration: active at sub-μM concentrations
S6B45 MM cell line
  EC50: < 1000 nM
OPM2 MM cell line
  EC50: < 1000 nM
KMS-12-BM MM cell line
  EC50: < 1000 nM
U266 MM cell line
  EC50: < 1000 nM
Delta 47 MM cell line
  EC50: < 1000 nM
Dox40 MM cell line
  EC50: > 4000 nM
NOP2 MM cell line
  EC50: > 4000 nM
XG-1 MM cell line
  EC50: > 4000 nM
Panel of MM cell lines
  EC50: ~1000 nM and ≤ 1000 nM
HS-5 BMSCs
  EC50: > 4000 nM
[3]
  EC50: > 4000 nM
PBMCs
  percentage of viable PBMCs: ≥ 50%
[4]
  response of purified primary tumor cells (viability): responded
MM.1S cells [5]
  cell cycle profile: increased the percentage of cells in S and G2/M phases early, followed by an increase in sub-G1 population
MM.1S cells [6]
  apoptosis (Annexin V / PI staining): induces apoptosis
MM.1S cells [7]; 2 μM LCQ195 for 4-24hrs
  cytochrome c release: no changes
[8]
  effect of bcl-2 overexpression on cell survival after treatment: minimal effect on cell survival
MM.1S cells [9]; 0-24 hrs
  caspase 8, caspase 3 and PARP cleavage (immunoblotting): cleavage as early as 16 hrs
  caspase 9 cleavage (immunoblotting): no cleavage of caspase 9
MM.1S cells [9]; as early as 2 hours
  Rb phosphorylation (immunoblotting): pronounced decrease
MM.1S cells [10]
  combination with bortezomib: no synergy
  combination with doxorubicin: no synergy
MM.1S cells [11]
  expression of transcription factors myc, IRF4 and XBP-1 (transcripts): suppressed
MM.1S cells [12]
  p107 levels (immunoblotting): decreased

## CC(C)C[C@H](NC(=O)[C@H](Cc1ccccc1)NC(=O)c1cnccn1)B(O)O [PS-341, reference compound]
MM.1S cells [7]; positive control, 50 nM for 12 hrs
  cytochrome c release: significant release of cytochrome C

## CN1CC[C@H](c2c(O)cc(O)c3c(=O)cc(-c4ccccc4Cl)oc23)[C@H](O)C1 [flavopiridol, reference compound]
MM.1S cells [12]
  p107 levels (immunoblotting): stable
